Measured values published in the supplement of paper PMC10307832.

Columns and labels:
Test in all cases: relative viability (nuclei count vs DMSO), 5 days (fraction); higher = more cells survive
HCC-44 = test system: HCC-44
In short: (§1)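 Medians of duplicate plates are given as relative viability. That measure is the nuclei count in treated wells divided by the count in vehicle wells. Counts were taken on 4× images of lung cancer cell lines in 1536-well plates, 5 days after pin-tool dosing the day after seeding with one drug alone or a fixed anchor-drug dose plus five library-drug doses (not always all listed) in √10 steps.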

NCI-H1792 = test system: NCI-H1792
In short: as §1

HARA = test system: HARA
In short: as §1

BEN = test system: BEN
In short: as §1

NCI-H441 = test system: NCI-H441
In short: as §1

NCI-H650 = test system: NCI-H650
In short: as §1

NCI-H358 = test system: NCI-H358
In short: as §1

NCI-H838 = test system: NCI-H838
In short: as §1

COR-L23 = test system: COR-L23
In short: as §1

EKVX = test system: EKVX
In short: as §1

NCI-H596 = test system: NCI-H596
In short: as §1

NCI-H23 = test system: NCI-H23
In short: as §1

HCC-15 = test system: HCC-15
In short: as §1

LK-2 = test system: LK-2
In short: as §1

SK-MES-1 = test system: SK-MES-1
In short: as §1

HCC-827 = test system: HCC-827
In short: as §1

COR-L 105 = test system: COR-L 105
In short: as §1

A-427 = test system: A-427
In short: as §1

201T = test system: 201T
In short: as §1

NCI-H1975 = test system: NCI-H1975
In short: as §1

NCI-H1666 = test system: NCI-H1666
In short: as §1

SW 900 = test system: SW 900
In short: as §1

NCI-H1437 = test system: NCI-H1437
In short: as §1

With O=C(O)c1ccc(-c2c[nH]c3ncc(-c4ccccc4)cc23)cc1C1CCCC1 + Nc1nc2[nH]cc(CCc3ccc(C(=O)N[C@@H](CCC(=O)O)C(=O)O)cc3)c2c(=O)[nH]1 [Pemetrexed] (partner 0.2 µM) the relative viability (HCC-44; first compound 0.04 µM) was 0.654, the relative viability (HCC-44; first compound 0.1265 µM) was 0.578 and the relative viability (HCC-44; first compound 0.4 µM) was 0.68. For the same compound, the relative viability (HCC-44; first compound 1.265 µM) was 0.598, the relative viability (NCI-H1792; first compound 0.04 µM) was 0.713 and the relative viability (NCI-H1792; first compound 0.1265 µM) was 0.968. For the same compound, the relative viability (NCI-H1792; first compound 0.4 µM) was 1.05, the relative viability (NCI-H1792; first compound 1.265 µM) was 0.734 and the relative viability (HARA; first compound 0.04 µM) was 0.23. The relative viability (HARA; first compound 0.1265 µM) was 0.237, the relative viability (HARA; first compound 0.4 µM) was 0.222 and the relative viability (HARA; first compound 1.265 µM) was 0.252. It also gave a relative viability (BEN; first compound 0.04 µM) of 0.598, a relative viability (BEN; first compound 0.1265 µM) of 0.862 and a relative viability (BEN; first compound 0.4 µM) of 0.792. It also gave a relative viability (BEN; first compound 1.265 µM) of 0.788, a relative viability (NCI-H441; first compound 0.04 µM) of 0.33 and a relative viability (NCI-H441; first compound 0.1265 µM) of 0.285. The relative viability (NCI-H441; first compound 0.4 µM) was 0.256, the relative viability (NCI-H441; first compound 1.265 µM) was 0.235 and the relative viability (NCI-H650; first compound 0.04 µM) was 0.941. The relative viability (NCI-H650; first compound 0.1265 µM) was 0.975, the relative viability (NCI-H650; first compound 0.4 µM) was 0.873 and the relative viability (NCI-H650; first compound 1.265 µM) was 0.782. For the same compound, the relative viability (NCI-H358; first compound 0.04 µM) was 0.17, the relative viability (NCI-H358; first compound 0.1265 µM) was 0.186 and the relative viability (NCI-H358; first compound 0.4 µM) was 0.181. The relative viability (NCI-H358; first compound 1.265 µM) was 0.148, the relative viability (NCI-H838; first compound 0.04 µM) was 0.25 and the relative viability (NCI-H838; first compound 0.1265 µM) was 0.265. It also gave a relative viability (NCI-H838; first compound 0.4 µM) of 0.253, a relative viability (NCI-H838; first compound 1.265 µM) of 0.227 and a relative viability (COR-L23; first compound 0.04 µM) of 0.191. It also gave a relative viability (COR-L23; first compound 0.1265 µM) of 0.196, a relative viability (COR-L23; first compound 0.4 µM) of 0.194 and a relative viability (COR-L23; first compound 1.265 µM) of 0.184. It also gave a relative viability (EKVX; first compound 0.04 µM) of 0.397, a relative viability (EKVX; first compound 0.1265 µM) of 0.576 and a relative viability (EKVX; first compound 0.4 µM) of 0.376. For the same compound, the relative viability (EKVX; first compound 1.265 µM) was 0.409, the relative viability (NCI-H596; first compound 0.04 µM) was 0.472 and the relative viability (NCI-H596; first compound 0.1265 µM) was 0.53. The relative viability (NCI-H596; first compound 0.4 µM) was 0.531, the relative viability (NCI-H596; first compound 1.265 µM) was 0.479 and the relative viability (NCI-H23; first compound 0.04 µM) was 0.756. The relative viability (NCI-H23; first compound 0.1265 µM) was 0.885, the relative viability (NCI-H23; first compound 0.4 µM) was 0.683 and the relative viability (NCI-H23; first compound 1.265 µM) was 0.66. For the same compound, the relative viability (HCC-15; first compound 0.04 µM) was 0.206, the relative viability (HCC-15; first compound 0.1265 µM) was 0.227 and the relative viability (HCC-15; first compound 0.4 µM) was 0.215. For the same compound, the relative viability (HCC-15; first compound 1.265 µM) was 0.188, the relative viability (LK-2; first compound 0.04 µM) was 0.172 and the relative viability (LK-2; first compound 0.1265 µM) was 0.344. The relative viability (LK-2; first compound 0.4 µM) was 0.317, the relative viability (LK-2; first compound 1.265 µM) was 0.276 and the relative viability (SK-MES-1; first compound 0.04 µM) was 0.959. The relative viability (SK-MES-1; first compound 0.1265 µM) was 1.1, the relative viability (SK-MES-1; first compound 0.4 µM) was 0.941 and the relative viability (SK-MES-1; first compound 1.265 µM) was 0.722. It also gave a relative viability (HCC-827; first compound 0.04 µM) of 0.198, a relative viability (HCC-827; first compound 0.1265 µM) of 0.28 and a relative viability (HCC-827; first compound 0.4 µM) of 0.287. The relative viability (HCC-827; first compound 1.265 µM) was 0.163, the relative viability (COR-L 105; first compound 0.04 µM) was 1.06 and the relative viability (COR-L 105; first compound 0.1265 µM) was 1.19. For the same compound, the relative viability (COR-L 105; first compound 0.4 µM) was 1.19, the relative viability (COR-L 105; first compound 1.265 µM) was 1.08 and the relative viability (A-427; first compound 0.04 µM) was 0.959. The relative viability (A-427; first compound 0.1265 µM) was 1.06, the relative viability (A-427; first compound 0.4 µM) was 0.943 and the relative viability (A-427; first compound 1.265 µM) was 0.843. For the same compound, the relative viability (201T; first compound 0.04 µM) was 0.342, the relative viability (201T; first compound 0.1265 µM) was 0.326 and the relative viability (201T; first compound 0.4 µM) was 0.357. For the same compound, the relative viability (201T; first compound 1.265 µM) was 0.343, the relative viability (NCI-H1975; first compound 0.04 µM) was 0.301 and the relative viability (NCI-H1975; first compound 0.1265 µM) was 0.298. The relative viability (NCI-H1975; first compound 0.4 µM) was 0.284, the relative viability (NCI-H1975; first compound 1.265 µM) was 0.28 and the relative viability (NCI-H1666; first compound 0.04 µM) was 0.753. For the same compound, the relative viability (NCI-H1666; first compound 0.1265 µM) was 0.917, the relative viability (NCI-H1666; first compound 0.4 µM) was 0.879 and the relative viability (NCI-H1666; first compound 1.265 µM) was 0.809. For the same compound, the relative viability (SW 900; first compound 0.04 µM) was 0.476, the relative viability (SW 900; first compound 0.1265 µM) was 0.471 and the relative viability (SW 900; first compound 0.4 µM) was 0.451. For the same compound, the relative viability (SW 900; first compound 1.265 µM) was 0.473, the relative viability (NCI-H1437; first compound 0.04 µM) was 0.338 and the relative viability (NCI-H1437; first compound 0.1265 µM) was 0.33. The relative viability (NCI-H1437; first compound 0.4 µM) was 0.311 and the relative viability (NCI-H1437; first compound 1.265 µM) was 0.295.
